# Measured values from PubChem BioAssay AID1963448 (Molecular Pharmacology Branch, DTP, NCI, 2024).
# System: 616215-338-R-J1-PDC complex spheroid growth, % test/control
# Experiment: Anticancer human tumor 616215-338-R-J1-PDC patient-derived colon adenocarcinoma cell line growth inhibition [Asc]
# Conditions: for IC50: curve of first compound; for viability, T/C: stronger effect = lower value
# Experimental: Multicellular complex tumor spheroid response to apoptosis pathway targeting inhibitors Alrizomadlin, Pelcitoclax, and Dasminapant in combination with a variety of drugs and investigational agents in selected tumor cell lines
# The MDM2 inhibitor alrizomadlin, the Bcl-2/Bcl-xL inhibitor pelcitoclax, and the IAPs inhibitor dasminapant were evaluated both individually and in combination with standard of care and investigational anticancer small molecules within a complex spheroid model of solid tumors. . Complex spheroids include a stromal component modeled by human endothelial cells (HUVEC) and fibroblasts modeled by human mesenchymal stem cells (MSCs). The concentration ranges selected for each drug and investigational agent were based upon clinically achievable concentrations if the clinical Cmax of the agent was known.
# Compounds. The drugs and investigational agents: alrizomadlin (APG-115; NSC831270), pelcitoclax (APG-1252; NSC835773), dasminapant (APG-1387;NSC834197), TAK-243 (NSC785004), copanlisib (NSC809693), olaparib (NSC753686), talazoparib (NSC767125), cobimetinib (NSC 768068), eltanexor (KPT-8602, NSC 794443), abemaciclib (NSC 768073), sotorasib (NSC818433), adagrasib (NSC 831453), MRTX-1133 (NSC 836407), Iadademestat (ORY1001, NSC 806812), and RMC-4630 (NSC839698), were obtained from the NCI Developmental Therapeutics Program Chemical Repository. The FDA-approved anticancer drug set is available from the Developmental Therapeutics Program at https://dtp.cancer.gov/organization/dscb/obtaining/available plates.htm. […] The stock solutions were prepared in dimethyl sulfoxide (DMSO, Sigma-Aldrich, St. Louis, MO, cat. D2650) at 800-fold the tested concentration and stored at -70 degrees C prior to their use. All drugs and investigational agents were tested over a range starting from a high concentration at or near the clinical Cmax and decreasing in half-log increments. If the clinical Cmax for an agent had not been determined, the highest concentration tested was 10 microM.
# The patient-derived cancer (PDC) cell lines include five colon adenocarcinomas: 186277-243-T-J2-PDC, 616215-338-R-J1-PDC, 439559-082-T-J2-PDC, 463943-066-T-J2-PDC, and 519858-162-T-J1-PDC; three pancreatic carcinomas: 323965-272-R-J2-PDC, 521955-158-R6-J3-PDC, and 521955-158-R2-J5-PDC; two uterine sarcomas: 327498-152-R-J2-PDC and 993429-296-R-J1-PDC; two rhabdomyosarcomas: 755483-174-R-J1-PDC and 772245-204-R-J1-PDC; two soft tissue sarcomas: 126254-015-R-J1-PDC and 494315-158-R-J1-PDC; two malignant fibrous histiocytomas: 317291-083-R-J1-PDC and 596521-263-R-J1-PDC; two breast carcinomas: 171881-019-R-J1-PDC and 885512-296-R-J2-PDC; and one ovarian carcinoma: 6556581-035-R-J-PDC were obtained from the NCI PDMR, (https://pdmr.cancer.gov). The established cell lines HSSY-2 synovial sarcoma (RRID:CVCL 8719), SYO-1 synovial sarcoma (RRID:CVCL_7146), MPNST malignant peripheral neural sheath tumor were obtained from the Sloan Kettering Institute. The following established cell lines were purchased from the American Type Culture Collection (ATCC, Manassas, VA), Sor the received from the NCI repository:, PANC-1 pancreatic carcinoma (CRL-1469, RRID:CVCL_0480), OVCAR-5 ovarian carcinoma (RRID:CVCL_1628), OVCAR-8 ovarian carcinoma (RRID:CVCL_1629), , MCF-7 breast carcinoma (CRL-12584, RRID:CVCL_0031), MDA-MB-231 breast carcinoma (CRL-12532, RRID:CVCL_0062), NCI-H1876 small cell lung carcinoma (CRL-5902, RRID:CVCL_1503), NCI-H510A small cell lung carcinoma (HTB-184, RRID:CVCL_1565), NCI-H1417 (CRL-5869, RRID:CVCL_1469), and NCI-H196 small cell lung carcinoma (CRL-5823, RRID:CVCL_1509). Dr. Peter Houghton (Greehey Children's Cancer Research Institute, University of Texas Health Science Center, San Antonio, TX) provided Rh-18 rhabdomyosarcoma (RRID:CVCL_1659). Pooled donor human umbilical vein endothelial cells (HUVEC, Lonza, cat. CC-2519) and human mesenchymal stem cells (hMSC, Lonza, cat. PT-2501) were purchased from Lonza (Walkersville, MD).
# Cell Culture. […]
# 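Further: spheroids exposed to agents for seven days before readout.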
# 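Wherever viability, T/C is given: 100% = DMSO vehicle control viability.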
smiles,measurement,setting,value
O=C(c1ccc(F)c(F)c1Nc1ccc(I)cc1F)N1CC(O)([C@@H]2CCCCN2)C1 + Cc1c(S(C)(=O)=O)c(-c2cc(F)cc(N3CCN(c4ccc(NS(=O)(=O)c5ccc(NC(CCN6CCC(C(=O)OCCCP(=O)(O)O)CC6)CSc6ccccc6)c(S(=O)(=O)C(F)(F)F)c5)cc4)CC3)c2)c(-c2ccc(Cl)cc2)n1C(C)C,IC50,second compound 0.1 µM,64.4 nM
same,IC50,second compound 0.316 µM,58.4 nM
same,IC50,second compound 1 µM,38.3 nM
same,IC50,second compound 3.16 µM,< 3.16 nM
same,IC50,second compound 10 µM,< 3.16 nM
same,"viability, T/C","second compound 0.1 µM, first compound 0.00316 µM",92.4%
same,"viability, T/C","second compound 0.1 µM, first compound 0.01 µM",91.7%
same,"viability, T/C","second compound 0.1 µM, first compound 0.0316 µM",79.5%
same,"viability, T/C","second compound 0.1 µM, first compound 0.1 µM",32%
same,"viability, T/C","second compound 0.1 µM, first compound 0.316 µM",1.51%
same,"viability, T/C","second compound 0.1 µM, first compound 1 µM",0.8%
same,"viability, T/C","second compound 0.316 µM, first compound 0.00316 µM",92.8%
same,"viability, T/C","second compound 0.316 µM, first compound 0.01 µM",91.9%
same,"viability, T/C","second compound 0.316 µM, first compound 0.0316 µM",79.3%
same,"viability, T/C","second compound 0.316 µM, first compound 0.1 µM",24.4%
same,"viability, T/C","second compound 0.316 µM, first compound 0.316 µM",0.48%
same,"viability, T/C","second compound 0.316 µM, first compound 1 µM",0.95%
same,"viability, T/C","second compound 1 µM, first compound 0.00316 µM",68%
same,"viability, T/C","second compound 1 µM, first compound 0.01 µM",70.4%
same,"viability, T/C","second compound 1 µM, first compound 0.0316 µM",56%
same,"viability, T/C","second compound 1 µM, first compound 0.1 µM",17.4%
same,"viability, T/C","second compound 1 µM, first compound 0.316 µM",0.25%
same,"viability, T/C","second compound 1 µM, first compound 1 µM",2.24%
same,"viability, T/C","second compound 3.16 µM, first compound 0.00316 µM",39.5%
same,"viability, T/C","second compound 3.16 µM, first compound 0.01 µM",34.9%
same,"viability, T/C","second compound 3.16 µM, first compound 0.0316 µM",27.3%
same,"viability, T/C","second compound 3.16 µM, first compound 0.1 µM",2.89%
same,"viability, T/C","second compound 3.16 µM, first compound 0.316 µM",0.11%
same,"viability, T/C","second compound 3.16 µM, first compound 1 µM",0.23%
same,"viability, T/C","second compound 10 µM, first compound 0.00316 µM",25.1%
same,"viability, T/C","second compound 10 µM, first compound 0.01 µM",21.5%
same,"viability, T/C","second compound 10 µM, first compound 0.0316 µM",14.2%
same,"viability, T/C","second compound 10 µM, first compound 0.1 µM",0.19%
same,"viability, T/C","second compound 10 µM, first compound 0.316 µM",0.18%
same,"viability, T/C","second compound 10 µM, first compound 1 µM",0.36%
